Data as given in article PMC8260761, “A bacteriocin-based treatment option for Staphylococcus haemolyticus biofilms” (Scientific Reports, 2021).

How the values were obtained:
Assay in all cases: Spot-on-lawn inhibition assay
Type in all cases: cell-based
[1] = system: Staphylococcus haemolyticus strains; set-up: key to Mutants observed after 24 h (mark *): *Mutants observed after 24 h; key to Average inhibition score: –: “−” = No inhibition; “+” = Unclear zone; “++” = zone < 1 cm; “+++” = zone ≥ 1 cm; settings: for Mutants observed after 24 h (mark *): spot of 5 μl at 1 mg/ml
Experimental: (§1) A semi-quantitative spot-on-lawn inhibitory assay was performed on 51 bacterial indicator strains (Table S1) to determine the bacteriocins inhibition spectra. Overnight cultures were diluted 1:100 in BHI soft agar and distributed on BHI agar plates. Once solidified, bacteriocins with various concentrations were applied on designated spots. The plates were incubated at appropriate temperature O/N and inhibition zones were measured the following day. To determine minimal inhibitory concentration (MIC50) of H1 against clinical S. haemolyticus isolates (Table S2), as well as strains heterologously expressing RseP (Table S4), the microtiterplate antimicrobial assay was performed as previously described[41],[79]. MIC50 was defined as the minimal bacteriocin concentration needs to inhibit the growth of a bacterial strain by at least 50%.

[2] = system: E. faecium; settings: 5 µl at 1 mg/ml, n=3
Experimental: as §1

[3] = system: S. homonis; settings: S. homonis LMG 3129; 5 µl at 1 mg/ml; n=3
Experimental: as §1

[4] = system: Lactobacillus curvatus; settings: 5 µl at 1 mg/ml, n=3
Experimental: as §1

[5] = system: L. ivanovii; set-up: key: –: “−” = No inhibition; “+” = Unclear zone; “++” = zone < 1 cm; “+++” = zone ≥ 1 cm; settings: L. ivanovii Li4; 5 µl at 1 mg/ml; n=3
Experimental: as §1

[6] = system: E. faecalis; set-up: key: –: “−” = No inhibition; “+” = Unclear zone; “++” = zone < 1 cm; “+++” = zone ≥ 1 cm; settings: 5 µl at 1 mg/ml, n=3
Experimental: as §1

[7] = system: L. plantarum; set-up: key: –: “−” = No inhibition; “+” = Unclear zone; “++” = zone < 1 cm; “+++” = zone ≥ 1 cm; settings: L. plantarum LMG 2352; 5 µl at 1 mg/ml; n=3
Experimental: as §1

[8] = system: Lactococcus garvieae; set-up: key: –: “−” = No inhibition; “+” = Unclear zone; “++” = zone < 1 cm; “+++” = zone ≥ 1 cm; settings: Lactococcus garvieae DCC43; 5 µl at 1 mg/ml; n=3
Experimental: as §1

[9] = system: Enterococcus avium; set-up: key: –: “−” = No inhibition; “+” = Unclear zone; “++” = zone < 1 cm; “+++” = zone ≥ 1 cm; settings: Enterococcus avium LMG 3465; 5 µl at 1 mg/ml; n=3
Experimental: as §1

[10] = system: Streptococcus dysgalactiae; set-up: key: “-“ = No inhibition; “+” = Unclear zone; “++” = zone < 1 cm; “+++”= zone > 1 cm; settings: Streptococcus dysgalactiae 7649-3; 5 µl at 1 mg/ml; n=3
Experimental: as §1

[11] = system: S. aureus; set-up: key: “-“ = No inhibition; “+” = Unclear zone; “++” = zone < 1 cm; “+++”= zone > 1 cm; settings: 5 µl at 1 mg/ml, n=3
Experimental: as §1

[12] = system: L. innocua; set-up: key: “-“ = No inhibition; “+” = Unclear zone; “++” = zone < 1 cm; “+++”= zone > 1 cm; settings: 5 µl at 1 mg/ml, n=3
Experimental: as §1

[13] = system: L. salivarius; set-up: key: “-“ = No inhibition; “+” = Unclear zone; “++” = zone < 1 cm; “+++”= zone > 1 cm; settings: L. salivarius UCC118; 5 µl at 1 mg/ml; n=3
Experimental: as §1

[14] = system: L. monocytogenes; set-up: key: “-“ = No inhibition; “+” = Unclear zone; “++” = zone < 1 cm; “+++”= zone > 1 cm; settings: 5 µl at 1 mg/ml, n=3
Experimental: as §1

Sequence: MLAKIKAMIKKFPNPYTLAAKLTTYEINWYKQQYGRYPWERPVA [EJ97, enterocin EJ97]
- Average inhibition score ([1]; S. haemolyticus 4068, 5 μl at 1 mg/ml, n = 3): ++ (“++” = zone < 1 cm)
- Mutants observed after 24 h (mark *) ([1]; S. haemolyticus 4068): *
- Average inhibition score ([1]; S. haemolyticus 4069, 5 μl at 1 mg/ml, n = 3): ++ (“++” = zone < 1 cm)
- Mutants observed after 24 h (mark *) ([1]; S. haemolyticus 4069): *
- Average inhibition score ([1]; S. haemolyticus 4070, 5 μl at 1 mg/ml, n = 3): ++ (“++” = zone < 1 cm)
- Mutants observed after 24 h (mark *) ([1]; S. haemolyticus 4070): *
- Average inhibition score ([1]; S. haemolyticus 4071, 5 μl at 1 mg/ml, n = 3): ++ (“++” = zone < 1 cm)
- Mutants observed after 24 h (mark *) ([1]; S. haemolyticus 4071): *
- Average inhibition score ([1]; S. haemolyticus 4072, 5 μl at 1 mg/ml, n = 3): ++ (“++” = zone < 1 cm)
- Mutants observed after 24 h (mark *) ([1]; S. haemolyticus 4072): *
- Average inhibition score ([1]; S. haemolyticus 4073, 5 μl at 1 mg/ml, n = 3): ++ (“++” = zone < 1 cm)
- Mutants observed after 24 h (mark *) ([1]; S. haemolyticus 4073): *
- Average inhibition score ([1]; S. haemolyticus 7067_4_21, 5 μl at 1 mg/ml, n = 3): ++ (“++” = zone < 1 cm)
- Mutants observed after 24 h (mark *) ([1]; S. haemolyticus 7067_4_21): *
- Average inhibition score ([1]; S. haemolyticus 7067_4_28, 5 μl at 1 mg/ml, n = 3): +++ (“+++” = zone ≥ 1 cm)
- Mutants observed after 24 h (mark *) ([1]; S. haemolyticus 7067_4_28): *
- Average inhibition score ([1]; S. haemolyticus 7067_4_39, 5 μl at 1 mg/ml, n = 3): +
- Average inhibition score ([1]; S. haemolyticus 7067_4_48, 5 μl at 1 mg/ml, n = 3): +
- Average inhibition score ([1]; S. haemolyticus 7067_4_49, 5 μl at 1 mg/ml, n = 3): ++ (“++” = zone < 1 cm)
- Mutants observed after 24 h (mark *) ([1]; S. haemolyticus 7067_4_49): *
- Average inhibition score ([1]; S. haemolyticus 7067_4_56, 5 μl at 1 mg/ml, n = 3): ++ (“++” = zone < 1 cm)
- Mutants observed after 24 h (mark *) ([1]; S. haemolyticus 7067_4_56): *
- Average inhibition score ([1]; S. haemolyticus 7067_4_60, 5 μl at 1 mg/ml, n = 3): +++ (“+++” = zone ≥ 1 cm)
- Mutants observed after 24 h (mark *) ([1]; S. haemolyticus 7067_4_60): *
- Average inhibition score ([1]; S. haemolyticus 7067_4_66, 5 μl at 1 mg/ml, n = 3): ++ (“++” = zone < 1 cm)
- Mutants observed after 24 h (mark *) ([1]; S. haemolyticus 7067_4_66): *
- Average inhibition score ([1]; S. haemolyticus 7067_4_67, 5 μl at 1 mg/ml, n = 3): ++ (“++” = zone < 1 cm)
- Mutants observed after 24 h (mark *) ([1]; S. haemolyticus 7067_4_67): *
- Average inhibition score ([1]; S. haemolyticus 7067_4_71, 5 μl at 1 mg/ml, n = 3): +++ (“+++” = zone ≥ 1 cm)
- Mutants observed after 24 h (mark *) ([1]; S. haemolyticus 7067_4_71): *
- Average inhibition score ([1]; S. haemolyticus 7067_4_84, 5 μl at 1 mg/ml, n = 3): ++ (“++” = zone < 1 cm)
- Mutants observed after 24 h (mark *) ([1]; S. haemolyticus 7067_4_84): *
- Average inhibition score ([1]; S. haemolyticus 7068_7_63, 5 μl at 1 mg/ml, n = 3): ++ (“++” = zone < 1 cm)
- Mutants observed after 24 h (mark *) ([1]; S. haemolyticus 7068_7_63): *
- Average inhibition score ([1]; S. haemolyticus LMG 4133, 5 µl at 1 mg/ml, n=3): ++ (“++” = zone < 1 cm)
- Average inhibition score ([1]; S. haemolyticus SH01, 5 μl at 1 mg/ml, n = 3): +++ (“+++” = zone ≥ 1 cm)
- Mutants observed after 24 h (mark *) ([1]; S. haemolyticus SH01): *
- Average inhibition score ([1]; S. haemolyticus SH04, 5 μl at 1 mg/ml, n = 3): +++ (“+++” = zone ≥ 1 cm)
- Mutants observed after 24 h (mark *) ([1]; S. haemolyticus SH04): *
- Average inhibition score ([1]; S. haemolyticus SH09, 5 μl at 1 mg/ml, n = 3): +
- Average inhibition score ([1]; S. haemolyticus SH10, 5 μl at 1 mg/ml, n = 3): +++ (“+++” = zone ≥ 1 cm)
- Mutants observed after 24 h (mark *) ([1]; S. haemolyticus SH10): *
- Average inhibition score ([1]; S. haemolyticus SH14, 5 μl at 1 mg/ml, n = 3): ++ (“++” = zone < 1 cm)
- Mutants observed after 24 h (mark *) ([1]; S. haemolyticus SH14): *
- Average inhibition score ([1]; S. haemolyticus SH20, 5 μl at 1 mg/ml, n = 3): ++ (“++” = zone < 1 cm)
- Mutants observed after 24 h (mark *) ([1]; S. haemolyticus SH20): *
- Average inhibition score ([1]; S. haemolyticus SH46, 5 μl at 1 mg/ml, n = 3): ++ (“++” = zone < 1 cm)
- Mutants observed after 24 h (mark *) ([1]; S. haemolyticus SH46): *
- Average inhibition score ([1]; S. haemolyticus SH47, 5 μl at 1 mg/ml, n = 3): +++ (“+++” = zone ≥ 1 cm)
- Mutants observed after 24 h (mark *) ([1]; S. haemolyticus SH47): *
- Inhibition zones at three concentrations ([1]; six S. haemolyticus strains 4068–4073, 0.04, 0.2 and 1.0 mg/ml, 5 µl spotted): some inhibition was seen only at the highest concentration
- Average inhibition score ([2]; E. faecium AL41): +++ (“+++”= zone > 1 cm)
- Average inhibition score ([2]; E. faecium L50): +++ (“+++”= zone > 1 cm)
- Average inhibition score ([2]; E. faecium P13): +++ (“+++”= zone > 1 cm)
- Average inhibition score ([2]; E. faecium P21): +++ (“+++”= zone > 1 cm)
- Average inhibition score [3]: +++ (“+++”= zone > 1 cm)
- Average inhibition score ([4]; L. curvatus LMG 2353): +++ (“+++”= zone > 1 cm)
- Average inhibition score ([4]; Lactobacillus curvatus LTH 1174): +++ (“+++”= zone > 1 cm)
- Average inhibition score [5]: +
- Average inhibition score ([6]; E. faecalis LMG 2333): +++ (“+++”= zone > 1 cm)
- Average inhibition score ([6]; E. faecalis LMG 3330): +++ (“+++”= zone > 1 cm)
- Average inhibition score ([6]; E. faecalis LMG 3331): +++ (“+++”= zone > 1 cm)
- Average inhibition score ([6]; E. faecalis LMG 3332): +++ (“+++”= zone > 1 cm)
- Average inhibition score ([6]; E. faecalis V583): +
- Average inhibition score [7]: ++ (“++” = zone < 1 cm)
- Average inhibition score [8]: +
- Average inhibition score [9]: +++ (“+++”= zone > 1 cm)
- Average inhibition score [10]: -
- Average inhibition score ([11]; S. aureus ATCC14458): -
- Average inhibition score ([11]; S. aureus LMG 3325): -
- Average inhibition score ([11]; S. aureus LMG 3328): -
- Average inhibition score ([11]; S. aureus LMG 3329): -
- Average inhibition score ([12]; L. innocua LMG 2710): +++ (“+++”= zone > 1 cm)
- Average inhibition score ([12]; L. innocua LMG 2785): -
- Average inhibition score [13]: -
- Average inhibition score ([14]; L. monocytogenes 223): -
- Average inhibition score ([14]; L. monocytogenes 279): -
- Average inhibition score ([14]; L. monocytogenes 400): -
- Average inhibition score ([14]; L. monocytogenes 403): -
